assay: Thermo Scientific Acclaim RSLC 120 C18, 100 × 2.1 mm, 2.2 µm, 30 °C; A: 90% water + 10% methanol + 0.01% formic acid + 5 mM ammonium formate; B: methanol + 0.01% formic acid + 5 mM ammonium formate; gradient (min/%B) 0.1/1 3/39 14/99.9 16/99.9; conditions: stereoisomer not certain

SMILES	LC retention time
COc1ccc(CC(C)N)cc1 (configuration not stated)	4.34 min
CCCCn1cc(C(=O)c2cccc3ccccc23)c2cc(O)ccc21	11.3 min
COc1ccc2c3c([nH]c2c1)C(C)=NCC3	5.06 min
CCCN(CCC)CCc1cccc2c1CC(=O)N2	3.98 min
COP(=O)(OC)Oc1ccc([N+](=O)[O-])cc1	6.36 min
CCCCOc1cc(C(=O)OCCN(CC)CC)ccc1N	5.94 min
CNC(C)Cc1ccc2c(c1)OCO2 (configuration not stated)	4.18 min
COc1ccc(C(O)(c2cncnc2)C2CC2)cc1 (configuration not stated)	7.15 min
COc1ccc(OC)c(CCN)c1	4.43 min
COCC(=O)N(c1c(C)cccc1C)N1CCOC1=O	6.29 min
CC(=O)OC1CN2CCC1CC2 (configuration not stated)	4.87 min
Cn1c(=O)c2[nH]cnc2n(C)c1=O	3.93 min
COc1cc(CC(C)N)c(OC)cc1C (configuration not stated)	5.83 min
COc1ncnc(NS(=O)(=O)c2ccc(N)cc2)c1OC	4.75 min
CCNc1nc(NC(C)C)nc(OC)n1	7.81 min
CCOP(=O)(OCC)SCSCC	8.6 min
COC(=O)c1ccccc1S(=O)(=O)NC(=O)N(C)c1nc(C)nc(OC)n1	7.94 min
CCOP(=S)(OCC)N1C(=O)c2ccccc2C1=O	10.2 min
CP(=O)(O)CCC(N)C(=O)O (configuration not stated)	1.44 min
CCSc1ccc2c(c1)N(CCCN1CCN(C)CC1)c1ccccc1S2	10.4 min
CC(N)Cc1ccc(O)cc1 (configuration not stated)	2.98 min
CC1(C)C(C(=O)c2cn(CC3CCOCC3)c3ccccc23)C1(C)C	11.4 min

SMILES	LC retention time
NCC(O)c1ccccc1 (configuration not stated)	2.84 min
CCCCCCC(C)(C)c1cc(O)c2c(c1)OC(C)(C)C1CC=C(CO)CC21 (configuration not stated)	13.5 min
CN1CCCCC1Cn1cc(C(=O)C2C(C)(C)C2(C)C)c2ccccc21 (configuration not stated)	8.81 min
C#CCOS(=O)OC1CCCCC1Oc1ccc(C(C)(C)C)cc1 (configuration not stated)	12.8 min
CCOC(=O)c1cn2nc(OP(=S)(OCC)OCC)cc2nc1C	11.4 min
COc1ccc2c3c1OC1C(=O)CCC4(O)C(C2)NCCC314 (configuration not stated)	3.71 min
CC(N)C(=O)c1ccccc1 (configuration not stated)	3.59 min
CCN(CC)C(C)C(=O)c1ccccc1 (configuration not stated)	4.11 min
c1ccc(CN2CCNCC2)cc1	4.23 min
CC(C)(C)NCC(O)COc1cccc2c1SCCC2 (configuration not stated)	6.76 min
COc1ccc(Cc2nccc3cc(OC)c(OC)cc23)cc1OC	6.27 min
NCC(O)COc1ccccc1C(=O)CCc1ccccc1.O=C(O)C(=O)O (configuration not stated)	7.09 min
CC(C)CNC(=O)N1CCNC1=O	5.74 min
CNC(C)C(O)c1ccc(O)cc1 (configuration not stated)	2.05 min
CCC(c1cccc(O)c1)C(C)CNC (configuration not stated)	5.14 min
CCOP(=O)(SC(C)CC)N1CCSC1=O (configuration not stated)	7.73 min
CCCCCn1cc(C(=O)c2ccc(OC)c3ccccc23)c2ccccc21	12.7 min
CCCCN(CC)C(=O)SCCC	11.5 min
CCCC(C(=O)c1ccc2c(c1)OCO2)N1CCCC1 (configuration not stated)	5.18 min
CNC(=O)Oc1cccc(N=CN(C)C)c1	3.14 min
CNC(=O)Oc1cccc(C)c1	6.59 min
CN1CCN(C)C1=O	3.53 min

SMILES	LC retention time
CC(C)(C)NCC(O)c1ccc(O)c(NC(N)=O)c1 (configuration not stated)	2.89 min
CCCn1c(C)c(C(=O)c2cccc3ccccc23)c2ccccc21	11.5 min
CCOC(=O)C(CCc1ccccc1)NC(C)C(=O)N1Cc2ccccc2CC1C(=O)O (configuration not stated)	9.03 min
CC[N+]1(C)C2CC(OC(=O)C(CO)c3ccccc3)CC1C1OC12 (configuration not stated)	3.87 min
CCOC(=O)C1(c2ccccc2)CCN(C)CC1	5.28 min
C=CCN1CCC23c4c5ccc(O)c4OC2C(O)C=CC3C1C5 (configuration not stated)	3.39 min
O=C(O)CCCn1cc(C(=O)c2cccc3ccccc23)c2ccccc21	9.33 min
CCOc1ccc2c3c1OC1C(O)C=CC4C(C2)N(C)CCC341 (configuration not stated)	4.08 min
COc1ccc(CCNCCCC(C#N)(c2ccc(OC)c(OC)c2)C(C)C)cc1OC (configuration not stated)	6.96 min
CCS(=O)CCSP(=O)(OC)OC (configuration not stated)	3.98 min
CCN(CC)CCNC(=O)COc1ccc(OC)cc1	4.31 min
CC(C)N(CCC(C(N)=O)(c1ccccc1)c1ccccn1)C(C)C (configuration not stated)	4.74 min
CCC1CN2CCc3c([nH]c4cccc(OC)c34)C2CC1C(=COC)C(=O)OC (configuration not stated)	6.23 min
COc1ccc(CC(C)N)cc1OC (configuration not stated)	3.94 min
CC(NCCC(c1ccccc1)c1ccccc1)c1ccccc1 (configuration not stated)	8.54 min
O=C1CC2OCC=C3CN4CCC56c7ccccc7N1C5C2C3CC46 (configuration not stated)	4.16 min
CCN(C(C)=O)c1cccc(-c2ccnc3c(C#N)cnn23)c1	6.61 min
CN(C)c1ccccc1	6.26 min
CC(COc1ccc(Oc2ccccc2)cc1)Oc1ccccn1 (configuration not stated)	12.6 min
CC(C)N(CCc1c[nH]c2cccc(O)c12)C(C)C	4.34 min
CC(C)CC(CN)CC(=O)O (configuration not stated)	3.88 min

Next, values leading:

LC retention time	SMILES
9.01 min	CCCc1nn(C)c2c(=O)[nH]c(-c3cc(S(=O)(=O)N4CCN(C5CCCC5)CC4)ccc3OCC)nc12
2.43 min	Nc1ncnc2nc[nH]c12
4.44 min	O=C(O)CCCCC1SCC2NC(=O)NC21 (configuration not stated)
6.94 min	CN1CCN(C(c2ccccc2)c2ccccc2)CC1
13 min	CC12CCC(=O)C=C1CCC1C2CCC2(C)C(C(=O)COC(=O)CCc3ccccc3)CCC12 (configuration not stated)
13.8 min	CON=C1CC2(CC3CC(CC=C(C)CC(C)C=CC=C4COC5C(O)C(C)=CC(C(=O)O3)C45O)O2)OC(C(C)=CC(C)C)C1C (configuration not stated)
6.36 min	COCC(C)N(C(=O)C(=O)O)c1c(C)csc1C (configuration not stated)
7.19 min	CCc1cccc(CC)c1N(COC)C(=O)CS(=O)(=O)O
4.54 min	CCN(CC)CC(=O)Nc1c(C)cccc1C
7.36 min	NC(=O)N1c2ccccc2C=Cc2ccccc21
3.76 min	Cn1c(=O)c2c(ncn2CC(O)CO)n(C)c1=O (configuration not stated)
7.69 min	CN(C)CCCN1c2ccccc2Sc2ccccc21
4.18 min	COc1cnc(NS(=O)(=O)c2ccc(N)cc2)nc1
6.59 min	CC(C)NCC(O)COc1cccc2ccccc12 (configuration not stated)
6.64 min	CSc1ccc2c(c1)N(CCC1CCCCN1C)c1ccccc1S2=O (configuration not stated)
4.68 min	Nc1nc(N)c2nc(-c3ccccc3)c(N)nc2n1
10.7 min	CCCN(CCC)C(=O)SCC
12.4 min	CCCCCCCCc1ccc(OCCO)cc1
9.55 min	CCOC(=O)C(CCc1ccccc1)NC(C)C(=O)N1C(C(=O)O)CC2CCCCC21 (configuration not stated)
8.42 min	O=c1[nH]c2ccccc2n1CCCN1CCN(C(c2ccccc2)c2ccccc2)CC1
5.06 min	O=C1OCC(O)=C1Cc1ccccc1
7.79 min	NC(=O)c1ccccc1Oc1ccccc1
7.46 min	CSc1nnc(C(C)(C)C)c(=O)[nH]1
8.49 min	Nc1ccc(N=Nc2ccccc2)c(N)n1
6.16 min	CN(C)CCOC(=O)C(c1ccccc1)C1(O)CCCC1 (configuration not stated)
5.02 min	COc1cc2c(cc1OC)CC(=O)N(CCCN(C)CC1Cc3cc(OC)c(OC)cc31)CC2 (configuration not stated)

LC retention time	SMILES
6.74 min	CN1CCCCC1CCN1c2ccccc2Sc2ccc(S(C)=O)cc21 (configuration not stated)
6.91 min	COc1ccccc1OCCNCC(O)COc1cccc2[nH]c3ccccc3c12 (configuration not stated)
6.66 min	Cc1ccc(C(=CCN2CCCC2)c2cccc(C=CC(=O)O)n2)cc1
7.54 min	CNCCOC(c1ccccc1)c1ccccc1C (configuration not stated)
10.6 min	CCCc1nn(C)c2c(=S)nc(-c3cc(S(=O)(=O)N4CCN(CC)CC4)ccc3OCC)[nH]c12
5.36 min	CCCCNC(=O)NS(=O)(=O)c1ccc(N)cc1
6.96 min	COc1ccc2c(c1OC)C(=O)OC2C1c2c(cc3c(c2OC)OCO3)CCN1C (configuration not stated)
3.81 min	O=C(O)c1ccc2n[nH]nc2c1
8.27 min	Cc1cc(C)n(-c2nc3ccccc3[nH]2)n1
12 min	CC1COC(=O)c2cc3c(cc21)C(C)(C)C(C)C3(C)C (configuration not stated)
6.99 min	O=S(=O)(O)NC1CCCCC1
11.1 min	CC(C)c1nc(CN(C)C(=O)NC(C(=O)NC(Cc2ccccc2)CC(O)C(Cc2ccccc2)NC(=O)OCc2cncs2)C(C)C)cs1 (configuration not stated)
6.94 min	O=C(c1ccccc1)c1ccc2n1CCC2C(=O)O (configuration not stated)
5.78 min	O=C1CC2(CCCC2)CC(=O)N1CCCCN1CCN(c2ncccn2)CC1
6.15 min	c1ccc2[nH]c(-c3cscn3)nc2c1
5.73 min	CCN(CC)C(=O)C1(c2ccccc2)CC1CN (configuration not stated)
4.94 min	CN(CCO)c1nc2c(c(=O)n(C)c(=O)n2C)n1C
6.67 min	CSc1ccc(C(=O)c2[nH]c(=O)[nH]c2C)cc1
10.8 min	C#CC1(OC(C)=O)CCC2C3CCC4=CC(=O)CCC4C3CCC21C (configuration not stated)
11.1 min	CC#CC1(O)CCC2C3CCC4=CC(=O)CCC4=C3C(c3ccc(N(C)C)cc3)CC21C (configuration not stated)
10.7 min	CCOC(=O)C1=NOC(c2ccccc2)(c2ccccc2)C1
10.4 min	CCCCCC(=O)c1ccc(O)cc1O
13.7 min	CN(C)c1ccc(C(c2ccccc2)c2ccc(N(C)C)cc2)cc1
8.12 min	CCCCOCCOCCSC#N
9.77 min	CC12CCC(=O)C=C1C=CC1C2CCC2(C)C1CCC21CCC(=O)O1 (configuration not stated)
8.53 min	CC(C(=O)O)c1cccc(C(=O)c2ccccc2)c1 (configuration not stated)
